Experimental data as given in EP1228058B1, “BENZOPYRANYL GUANIDINE DERIVATIVES, PROCESS FOR PREPARATION THEREOF, AND PHARMACEUTICAL COMPOSITIONS CONTAINING THEM” (Dongbu Hannong Chemical Co., Ltd., priority 1999, dated 2001).

How the values were obtained:
HUVEC = assay: Inhibition of HUVEC tube formation on Matrigel; assay type: cell-based, Human; set-up: key: -: no effect; +/-: week effect; +: moderate effect; ++: strong effect
Experimental: HUVEC (Human umbilical vein endothelial cells, ATCC CRL-1730) were cultured, and tubulogenesis was induced in vascular endothelial cells by plating them onto the surface of Matrigel for several hours. The effects on tube formation of the test compounds were compared with the vehicle treated controls, then confirmed their in vitro anti-angiogenic effect indirectly.

[1] = Acute oral toxicity test in rats; conditions: rat, in vivo, single oral dose in 0.5% methyl cellulose, read-out: lethal dose (LD50) for oral administration
Experimental: In this test six-week old SPF SD rats were used with two rats assigned to each group. The compounds of examples 1, 2, 3, 5, 7, 8, 9, 10, 13, 14, 15, 19, 22, 23, 24, 25, 26, 28, 29, 30, 31, 32, 33, 34, 35, 36, 37, 38, 39, 40, 41, 44, 46, 47, 48, 49, 51, 52, 57, 58, 60, 62, 64, 67, 68, 69, 71 and 72 were suspended in 0.5% methyl cellulose, respectively, and administered orally at a single dose of 1 g/kg using a ball-tipped needle. The dosing volume was 10 ml/kg. […] All survivors at the end of the observation period underwent laparotomy under ether anesthesia and the blood samples were taken from the abdominal aorta for hematological tests and biochemical analysis. After sacrificing the animals, autopsy was performed for macroscopic observation of the organs and tissues. Tissue samples of vital organs from macroscopic legion were removed and fixed in 10% neutral buffered formalin solution, then processed by standard procedures for histopathology and examined under light microscope. There were no significant changes in clinical symptoms, body weight and mortalities. Also in hematology, serum chemistry parameters and macroscopic observation, no drug-related changes were observed.

[2] = system: ischemic heart models of rats; assay: Heart protective (anti-ischemic) activity in ischemic heart models of anesthetized rats; assay type: in vivo; conditions: 45 min occlusion, 90 min reperfusion
Experimental: Male rats (350-450 g, obtained from the Experimental Animal Team of the Korea Research Institute of Chemical Technology) were anesthetized by the intraperitoneal injection of pentobarbital at a dose of 75 mg/kg. After trachetomy, the rats were rendered to respire artificially at a rate of 60/min with a stroke volume of 10 ml/kg. Cannulars were inserted into the fermoral vein and the fermoral artery and used for drug administration and blood pressure measurement, respectively.
In the ischemic myocardium damage models, the body temperature has an important influence on the results. To avoid the change in the body temperature, a body temperature measuring probe was inserted into the rectum of each rat and the body temperature was constantly kept at 37 °C with the aid of a homeothermic blanket control unit.
Afterwards, during testing, a continuous measurement was made of the mean arterial blood pressures and heart rates from the rats. For the measurement of the blood pressure, a pressure transducer, such as that manufactured by Grass Ins., MA, U.S.A., identified as Model Statham P23XL, was used. The heart rate was measured by a tachometer, such as that manufactured by Gould Inc., OH, U.S.A., identified as Biotachometer. In addition, all of the changes occurring were continuously recorded through the Gould 2000 chart recorder, manufactured by Gould Inc.
The left coronary artery was occluded according to the Selye H. method as follows. The rats underwent a left thoracotomy operation for partial opening of the chest and the right-side chest was pressurized by the middle finger of the left hand to push the heart out. Immediately after the left anterior descending coronary artery hereinafter referred to as (LAD) was carefully stitched using a suture needle with 5-0 silk ligature, the heart was then repositioned in the thoracic cavity while both ends of the ligature were situated outside. The opposite ligature ends were passed through a PE tube (PE100, 2.5 cm) and allowed to stand loose for 20 min for stabilization. Via the cannula inserted into the femoral vein, vehicles or drugs were administered into the rats which were rendered to stand for 30 min in order to sufficiently elicit the efficacies of the drugs. BMS-180448 was used as a control drug and the i.v.administration dose was 0.3 mg/kg for all test drugs of interest and the control drug.
Next, the PE tube which had the doubled strands of the ligature passed therethrough was pushed toward the heart and then, set upright by tightly pulling end regions of the ligature with a hemostatic pincette while pressing the coronary artery. The PE tube was allowed to stand for 45 min for the occlusion of the coronary artery, followed by the removal of the hemostatic pincette and then, by the reperfusion for 90 min.
After the reocclusion of the coronary artery in accordance with the above procedure, the rats were administered with 2 ml of a 1% Evans blue through an intravenous route. Subsequently, an excess of pentobarbital was intravenously injected to kill the rats, after which the heart was removed and then, deprived of the right ventricle and both atria. The left ventricle was cut horizontally to the heart apex into 5 or 6 slices which were weighed. From the surface of each slice, images were input with the aid of a Hi-scope into a computer installed with an image analyzing program (Image Pro Plus). From the images input into the computer, the area of the normal blood stream tissue region which appeared blue in a computer monitor and the area which appeared colorless were measured. The percentage of the colorless area to the total area of each slice was calculated and multiplied by the weight of each slice to determine the area at risk (AAR) of each slice. […]

rat aorta = assay: Vasodilation effects on isolated blood vessels of rats (methoxamine-constricted aortic rings); assay type: cell-based; conditions: isolated rat aorta constricted with methoxamine (3 uM); read-out: Vasodilation Activity (in Vitro, rat aorta) (IC50)
Description: Male Sprague-Dawly rats (350-450 g, obtained from the Experimental Animal Team of the Korea Research Institute of Chemical Technology) were knocked unconscious by hitting the occipital region, sacrificed by cervical dislocation, and underwent thoracotomy. After being quickly removed, the thoracic aorta was deprived of the adipose tissue and cut into aortic rings of 3 mm width. The aorta was lightly rubbed with a modified Krebs Henseleit buffer (Physiological Salt Solution, PSS) soaked cotton club to remove the inner epithelial layer therefrom. While being suspended in an organ bath containing a physiological buffer, the vascular tissue was allowed to equilibrate under a resting tension of 2 g and then, stand for 1 hour at 37 °C for stabilization with a supply of a carbogen consisting of 95% O2-5% CO2.
Thereafter, the vascular tissue was constricted with 10^-5 M phenylephrine and washed several times with PSS and this procedure was repeated again to ensure the stable reacivity of vascular smooth muscle to repetitive constriction/dilatation.
In addition, 3x10^-6 M methoxamine was used to induce an intensive constriction in the vascular smooth muscle. When the vasoconstriction induced by the methoxamine reached and maintained a maximum, test compounds and controls were cumulatively added to the organ baths in concentrations of 1, 3, 10 and 30 uM so as to induce vasodilatation. As for the controls, they were Cromakalim and BMS-180448 (the compounds of the chemical formula 2), both known to be the first generation KATP activator with potent vasodilatation and cardioprotection effects.
Following the addition of the drugs, the change in the maximal constriction induced by methoxamine was calculated to plot a concentration-dilation response curve. Through a linear regression analysis, IC50, the drug concentration at which the vascular tissue is 50% dilated, was obtained for each drug.

| SMILES | LD50 [1] | also measured |
| --- | --- | --- |
| COC(OC)[C@@]1(C)Oc2ccc([N+](=O)[O-])cc2[C@H](NC(=NC#N)Nc2ccc(Cl)cc2)[C@H]1O [Example 10, (2S, 3R, 4S)-N''-cyano-N-(6-nitro-3,4-dihydro-3-hydroxy-2-methyl-2-dimethoxymethyl-2H-benzopyran-4-yl)-N'-(4-chlorophenyl)guanidine] | > 1000 mg/kg | Inhibitory Effects on Tube Formation (HUVEC; 10 uM): +; Inhibitory Effects on Tube Formation (HUVEC; 100 uM): ++ |
| COC(OC)[C@]1(C)Oc2ccc([N+](=O)[O-])cc2[C@@H](NC(=NC#N)Nc2ccc(Cl)cc2)[C@@H]1O [Example 2, (2R, 3S, 4R)-N''-cyano-N-(6-nitro-3,4-dihydro-3-hydroxy-2-methyl-2-dimethoxymethyl-2H-benzopyran-4-yl)-N'-(4-chlorophenyl)guanidine] | > 1000 mg/kg | Inhibitory Effects on Tube Formation (HUVEC; 10 uM): +; Inhibitory Effects on Tube Formation (HUVEC; 100 uM): ++ |
| COC(OC)[C@@]1(C)Oc2ccc(NC(C)=O)cc2[C@@H](NC(=NC#N)NCc2ccccc2)[C@@H]1O [Example 41] | > 1000 mg/kg | Anti-ischemic Activity (in vivo, rats) (0.3 mg/kg i.v.) IZ/AAR (%) [2]: 30.25%; IC50 (rat aorta): > 30 µM |
| COc1ccc(NC(=NC#N)N[C@H]2c3cc([N+](=O)[O-])ccc3O[C@](C)(C(OC)OC)[C@@H]2O)cc1 [Example 16, (2S, 3R, 4S)-N''-cyano-N-(6-nitro-3,4-dihydro-3-hydroxy-2-methyl-2-dimethoxymethyl-2H-benzopyran-9-yl)-N'-(4-methoxyphenyl) guanidine] |  | Inhibitory Effects on Tube Formation (HUVEC; 10 uM): +/-; Inhibitory Effects on Tube Formation (HUVEC; 100 uM): +/- |
| COC(OC)[C@@]1(C)Oc2ccc(N)cc2[C@H](/N=C(\NC#N)NCc2ccccc2)[C@H]1O [Example 57, (2S, 3R, 4S)-N''-cyano-N-(6-amino-3,4-dihydro-3-hydroxy-2-methyl-2-dimethoxymethyl-2H-benzopyran-4-yl)-N'-benzylguanidine] | > 1000 mg/kg |  |
| COC(OC)[C@]1(C)Oc2ccc([N+](=O)[O-])cc2[C@H](NC(=NC#N)Nc2cccc(Cl)c2)[C@H]1O [Example 3, (2R, 3R, 4S)-N''-cyano-N-(6-nitro-3,4-dihydro-3-hydroxy-2-methyl-2-dimethoxymethyl-2H-benzopyran-4-yl)-N'-(3-chlorophenyl)guanidine] | > 1000 mg/kg |  |
| COC(OC)[C@@]1(C)Oc2c(N)cccc2[C@@H](NC(=NC#N)NCc2ccccc2)[C@@H]1O [Example 71, (2S, 3S, 4R)-N''-cyano-N-(8-amino-3,4-dihydro-3-hydroxy-2-methyl-2-dimthoxymethyl-2H-benzopyran-4-yl)-N'-benzylguanidine] | > 1000 mg/kg |  |
| COC(OC)[C@]1(C)Oc2ccc([N+](=O)[O-])cc2[C@@H](NC(=NC#N)Nc2ccc(C)cc2)[C@@H]1O [Example 19, (2R, 3S, 4R)-N''-cyano-N-(6-nitro-3,4-dihydro-3-hydroxy-2-methyl-2-dimethoxymethyl-2H-benzopyran-4-yl)-N'-(4-methylphenyl)guanidine] | > 1000 mg/kg |  |
| COC(OC)[C@]1(C)Oc2c(N)cccc2[C@@H](NC(=NC#N)NCc2ccccc2)[C@@H]1O [Example 72, (2R, 3S, 4R)-N''-cyano-N-(8-amino-3,4-dihydro-3-hydroxy-2-methyl-2-dimthoxymethyl-2H-benzopyran-4-yl)-N'-benzylguanidine] | > 1000 mg/kg |  |
| COC(OC)[C@@]1(C)Oc2ccc([N+](=O)[O-])cc2[C@@H](NC(=NC#N)NCc2cccc([N+](=O)[O-])c2)[C@@H]1O [Example 52, (2S, 3S, 4R)-N''-cyano-N-(6-nitro-3,4-dihydro-3-hydroxy-2-methyl-2-dimethoxymethyl-2H-benzopyran-4-yl)-N'-(3-nitrobenzyl)guanidine] | > 1000 mg/kg | Inhibitory Effects on Tube Formation (HUVEC; 10 uM): +/-; Inhibitory Effects on Tube Formation (HUVEC; 100 uM): ++ |
| COC(OC)[C@@]1(C)Oc2ccc([N+](=O)[O-])cc2[C@@H](NC(=NC#N)Nc2cccc(C(F)(F)F)c2)[C@@H]1O [Example 15, (2S, 3S, 4R)-N''-cyano-N-(6-nitro-3,4-dihydro-3-hydroxy-2-methyl-2-dimethoxymethyl-2H-benzopyran-4-yl)-N'-(3-trifluoromethylphenyl)guanidine] | > 1000 mg/kg | IC50 (rat aorta): 14.1 µM |
| COC(OC)[C@]1(C)Oc2ccc([N+](=O)[O-])cc2[C@H](NC(=NC#N)Nc2ccc([N+](=O)[O-])cc2)[C@H]1O [Example 5, (2R, 3R, 4S)-N''-cyano-N-(6-nitro-3,4-dihydro-3-hydroxy-2-methyl-2-dimethoxymethyl-2H-benzopyran-4-yl)-N'-(4-nitrophenyl)guanidine] | > 1000 mg/kg |  |
| CC1(C)Oc2ccc(C#N)cc2C(N2CCCC2=O)C1O (centres unmarked) [Cromakalim, reference compound] |  | IC50 (rat aorta): 0.067 µM |
| C[C@]1(C2OCCCO2)Oc2ccc([N+](=O)[O-])cc2[C@@H](NC(=NC#N)NCc2ccccc2)[C@@H]1O [Example 62, (2S, 3S, 4R) -N''-cyano-N-(6-nitro-3,4-dihydro-3-hydroxy-2-methyl-2-([1,3]dioxan-2-yl)-2H-benzopyran-4-yl)-N'-benzylguanidine] | > 1000 mg/kg |  |
| COC(OC)[C@@]1(C)Oc2ccc([N+](=O)[O-])cc2[C@@H](NC(=NC#N)Nc2ccccc2Cl)[C@@H]1O [Example 33, (2S, 3S, 4R)-N''-cyano-N-(6-nitro-3,4-dihydro-3-hydroxy-2-methyl-2-dimethoxymethyl-2H-benzopyran-4-yl)-N'-(2-chlorophenyl)guanidine] | > 1000 mg/kg |  |
| COc1ccc(CNC(=NC#N)N[C@@H]2c3cc([N+](=O)[O-])ccc3O[C@](C)(C(OC)OC)[C@H]2O)cc1OC [Example 48, (2S, 3S, 4R)-N''-cyano-N-(6-nitro-3,4-dihydro-3-hydroxy-2-methyl-2-dimethoxymethyl-2H-benzopyran-4-yl)-N'-(3,4-dimethoxybenzyl) guanidine] | > 1000 mg/kg |  |
